The values below are quoted from earlier work in patent publication US20070197530A1, “Amido compounds and their use as pharmaceuticals” (priority 2006, published 2007).

For series [1], the system named is pancreatic islet cells of ob/ob mice.
Series [2] relates to primary hippocampal cells.
The subject of the next series is healthy volunteers. As to conditions: after seven days of carbenoxolone treatment.

In the case of `CC1(C)[C@@H](OC(=O)CCC(=O)O)CC[C@]2(C)[C@H]3C(=O)C=C4[C@@H]5C[C@@](C)(C(=O)O)CC[C@]5(C)CC[C@@]4(C)[C@]3(C)CC[C@@H]12` [carbenoxolone], the “negative effects of glucocorticoids on bone nodule formation” value in the series with bone nodule formation was “attenuate the negative effects of glucocorticoids on bone nodule formation”. Further, the glucose-stimulated insulin release result in series [1] was “improves glucose-stimulated insulin release”. Further, the “protection from glucocorticoid-mediated exacerbation of excitatory amino acid neurotoxicity” value in series [2] was “protects the cells from glucocorticoid-mediated exacerbation of excitatory amino acid neurotoxicity”. The “IOP reduced by” value in the series with healthy volunteers is given as 18%.
